Source: patent US4321384A, “Antihypertensive agents” (American Home Products Corporation, priority 1981, dated 1982)

Key:
rabbit aortic strips = test: Ca+2 antagonism: relaxation of potassium-contracted rabbit aortic strips; format: cell-based; conditions: Oryctolagus cuniculus; 10^-5 M bath concentration; strips contracted with 100 millimoles potassium ion; read-out: percent relaxation (P.R.)
Procedure: After a stable active tension has developed in the strip, as measured by Statham UC-2 force transducers and recorded on an eight channel Beckman Dynograph Polygraphic Recorder, an amount of the antagonist was added to the organ bath to make a 10^-5 molar concentration of antagonist. The […] effect, expressed as percent relaxation, was taken from the mean of at least two experiments. […] A Ca^+2 antagonist producing a 20 percent relaxation of aortic tissue in this test procedure at a 10^-5 molar bath concentration of the antagonist, generally produces a significant reduction in blood pressure when a sufficient amount is given to the spontaneously hypertensive rat. The following examples illustrate the preparation of a representative number of compounds of this invention. After each example, the Ca^+2 antagonist activity of the compound is presented in terms of percent relaxation (P.R.) at the stated concentration. Similarly, the antihypertensive activity is reported in terms of millimeters mercury (mmHg) blood pressure (B.P.) reduction at the stated time post 50 mg/kg oral dosing.

[1] = tested on: spontaneously hypertensive rats; test: Systolic blood pressure lowering in spontaneously hypertensive rats; format: in vivo, rat; conditions: 1.5 hours post dose 25 mg/kg

Compound: COC(=O)C1=C(C)NC2=C(C(=O)CNC2)C1c1cccc([N+](=O)[O-])c1 (centres unmarked) [Example 13, 1,4,5,6,7,8-Hexahydro-2-methyl-4-(3-nitrophenyl)-5-oxo-1,7-naphthyridine-3-carboxylic acid methyl ester]
- inhibition at 10 µM (rabbit aortic strips): 86.5%
- blood pressure (B.P.) reduction [1]: -58 mmHg
